For 4 compounds, remaining binding results are on record in publication PMC10004634 (PLOS ONE, 2023).

Like-named read-outs stand apart in the source and are kept apart here.

What all share (test): biochemical
What all share (design): KINOMEscan scanMAX competition binding, DNA-tagged kinases, qPCR read-out, percent control at 300 nM
On the technique in general: Real-time PCR tracks product formation cycle by cycle.

One assay addresses T1, AURKC (Homo sapiens, UniProt Q9UQB9).
T1 sequence (Q9UQB9 1-309): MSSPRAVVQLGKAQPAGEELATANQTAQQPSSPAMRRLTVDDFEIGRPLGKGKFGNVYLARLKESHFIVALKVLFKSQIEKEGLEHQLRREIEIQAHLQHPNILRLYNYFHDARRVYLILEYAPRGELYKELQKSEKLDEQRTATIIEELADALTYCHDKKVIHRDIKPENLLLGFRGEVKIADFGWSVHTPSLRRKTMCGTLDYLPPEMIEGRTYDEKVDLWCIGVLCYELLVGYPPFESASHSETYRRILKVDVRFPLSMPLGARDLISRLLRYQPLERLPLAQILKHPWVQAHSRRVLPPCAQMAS

The target of another assay is T2, NEK3 (Homo sapiens, UniProt P51956).
T2 sequence (P51956 1-506): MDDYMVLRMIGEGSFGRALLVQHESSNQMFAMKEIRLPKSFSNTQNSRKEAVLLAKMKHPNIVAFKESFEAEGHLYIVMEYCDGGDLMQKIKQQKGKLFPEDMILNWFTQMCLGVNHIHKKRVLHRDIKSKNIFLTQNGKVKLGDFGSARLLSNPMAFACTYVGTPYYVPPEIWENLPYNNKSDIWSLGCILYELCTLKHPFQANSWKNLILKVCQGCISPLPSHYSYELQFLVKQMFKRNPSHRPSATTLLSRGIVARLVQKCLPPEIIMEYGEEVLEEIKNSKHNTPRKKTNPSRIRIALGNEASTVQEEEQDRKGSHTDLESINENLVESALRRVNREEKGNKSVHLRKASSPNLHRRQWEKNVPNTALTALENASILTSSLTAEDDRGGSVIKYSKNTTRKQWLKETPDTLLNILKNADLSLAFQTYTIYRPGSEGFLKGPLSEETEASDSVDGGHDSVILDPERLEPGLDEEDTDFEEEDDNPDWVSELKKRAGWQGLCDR

The target of the next assay is T3, YANK2 (Homo sapiens, UniProt Q9NY57).
T3 construct: gene STK32B
T3 sequence (Q9NY57 whole entry): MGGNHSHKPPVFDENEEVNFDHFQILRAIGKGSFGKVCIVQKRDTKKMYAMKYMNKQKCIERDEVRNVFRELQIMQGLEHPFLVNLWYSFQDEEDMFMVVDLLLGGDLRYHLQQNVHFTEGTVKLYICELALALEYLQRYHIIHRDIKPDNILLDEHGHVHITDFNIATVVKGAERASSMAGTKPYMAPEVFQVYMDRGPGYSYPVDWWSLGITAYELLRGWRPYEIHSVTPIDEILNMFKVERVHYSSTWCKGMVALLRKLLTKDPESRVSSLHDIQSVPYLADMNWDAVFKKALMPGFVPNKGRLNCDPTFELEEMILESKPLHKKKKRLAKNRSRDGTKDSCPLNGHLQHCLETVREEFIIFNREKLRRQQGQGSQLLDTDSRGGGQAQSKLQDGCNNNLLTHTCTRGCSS

The next assay addresses T4, ZAK (Homo sapiens, UniProt Q9NYL2).
T4 construct: gene MAP3K20

The next assay addresses T5, TXK (Homo sapiens, UniProt P42681).
T5 sequence (P42681 1-527): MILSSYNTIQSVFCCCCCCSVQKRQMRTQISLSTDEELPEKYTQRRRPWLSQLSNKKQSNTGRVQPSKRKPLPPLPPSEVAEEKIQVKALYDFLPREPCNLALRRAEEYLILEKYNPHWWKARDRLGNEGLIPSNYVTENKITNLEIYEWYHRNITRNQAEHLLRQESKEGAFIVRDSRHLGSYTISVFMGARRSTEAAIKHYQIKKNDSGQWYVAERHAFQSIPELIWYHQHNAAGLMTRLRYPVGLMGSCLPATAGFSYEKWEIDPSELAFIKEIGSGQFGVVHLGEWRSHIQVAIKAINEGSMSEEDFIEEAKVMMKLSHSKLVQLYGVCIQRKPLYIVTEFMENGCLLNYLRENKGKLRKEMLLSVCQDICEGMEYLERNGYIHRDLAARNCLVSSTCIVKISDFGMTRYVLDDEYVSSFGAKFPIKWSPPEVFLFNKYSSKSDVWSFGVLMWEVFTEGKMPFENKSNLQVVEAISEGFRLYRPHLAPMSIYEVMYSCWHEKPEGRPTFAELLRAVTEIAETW

A further assay deals with CLK3 (Homo sapiens, UniProt P49761).
Chain of CLK3 (P49761 whole entry): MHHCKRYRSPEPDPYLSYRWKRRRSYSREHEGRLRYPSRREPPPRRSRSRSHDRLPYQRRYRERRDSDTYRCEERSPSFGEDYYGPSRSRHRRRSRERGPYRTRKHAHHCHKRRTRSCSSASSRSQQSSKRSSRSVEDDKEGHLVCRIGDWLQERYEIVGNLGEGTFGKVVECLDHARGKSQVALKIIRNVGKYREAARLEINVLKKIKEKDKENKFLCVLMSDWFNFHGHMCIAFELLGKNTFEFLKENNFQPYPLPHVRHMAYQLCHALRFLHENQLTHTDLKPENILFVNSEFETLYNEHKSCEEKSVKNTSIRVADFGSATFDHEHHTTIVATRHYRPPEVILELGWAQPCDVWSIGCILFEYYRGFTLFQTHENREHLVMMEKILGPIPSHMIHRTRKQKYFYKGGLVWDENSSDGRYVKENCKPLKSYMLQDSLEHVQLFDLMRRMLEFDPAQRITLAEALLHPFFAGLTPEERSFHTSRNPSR
[1] abbreviates: read-out: Percent control / Zanubrutinib.
The mark [2] stands for this setting: read-out: Percent control / Tirabrutinib.
The mark [3] stands for this setting: read-out: Percent control / Ibrutinib.
The mark [4] stands for this setting: read-out: Percent control / Acalabrutinib.

T4 sequence (Q9NYL2 whole entry): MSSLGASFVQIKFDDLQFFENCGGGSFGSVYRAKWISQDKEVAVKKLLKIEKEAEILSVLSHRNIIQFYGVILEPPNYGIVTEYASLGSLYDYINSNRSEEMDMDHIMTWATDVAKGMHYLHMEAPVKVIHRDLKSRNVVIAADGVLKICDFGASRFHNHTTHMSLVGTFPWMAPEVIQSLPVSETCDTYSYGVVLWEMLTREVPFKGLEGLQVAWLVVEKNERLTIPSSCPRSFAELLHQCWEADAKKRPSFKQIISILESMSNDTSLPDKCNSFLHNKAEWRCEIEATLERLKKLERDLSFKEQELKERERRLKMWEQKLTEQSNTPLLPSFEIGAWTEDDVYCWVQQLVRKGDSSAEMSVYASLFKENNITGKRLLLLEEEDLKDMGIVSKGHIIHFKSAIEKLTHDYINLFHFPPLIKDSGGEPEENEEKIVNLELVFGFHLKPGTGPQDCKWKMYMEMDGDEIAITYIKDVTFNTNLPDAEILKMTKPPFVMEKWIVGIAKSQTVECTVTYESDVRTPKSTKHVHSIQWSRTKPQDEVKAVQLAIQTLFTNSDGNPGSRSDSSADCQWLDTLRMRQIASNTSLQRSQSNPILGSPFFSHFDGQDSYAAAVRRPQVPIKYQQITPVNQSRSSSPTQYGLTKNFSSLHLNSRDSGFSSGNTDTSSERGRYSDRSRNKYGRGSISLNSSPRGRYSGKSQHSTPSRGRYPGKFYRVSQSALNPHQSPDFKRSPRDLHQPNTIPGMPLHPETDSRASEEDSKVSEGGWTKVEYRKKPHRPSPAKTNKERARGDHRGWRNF

Take `C=CC(=O)N1CCC([C@@H]2CCNc3c(C(N)=O)c(-c4ccc(Oc5ccccc5)cc4)nn32)CC1` [Zanubrutinib]: the remaining binding at 0.3 µM at AURKC (setting [1]) came to 97%; on NEK3 (setting [1]), 100%; on YANK2 (setting [1]) it was 96%; on ZAK (setting [1]) it was 62%; on TXK (setting [1]) it was 14%; on CLK3 (setting [1]), 82%.

As for `CC#CC(=O)N1CC[C@@H](n2c(=O)n(-c3ccc(Oc4ccccc4)cc3)c3c(N)ncnc32)C1` [Tirabrutinib], the remaining binding at 0.3 µM on AURKC (setting [2]) is 65%; on YANK2 (setting [2]) it was 87%; at TXK (setting [2]) it was 38%; on CLK3 (setting [2]), 82%.

Consider `C=CC(=O)N1CCC[C@@H](n2nc(-c3ccc(Oc4ccccc4)cc3)c3c(N)ncnc32)C1` [Ibrutinib], for which the remaining binding at 0.3 µM on AURKC (setting [3]) stood at 54%; at NEK3 (setting [3]) it was 99%; on YANK2 (setting [3]), 76%; on ZAK (setting [3]), 70%; at TXK (setting [3]), 0.4%.

`CC#CC(=O)N1CCC[C@H]1c1nc(-c2ccc(C(=O)Nc3ccccn3)cc2)c2c(N)nccn12` [Acalabrutinib]: the remaining binding at 0.3 µM amounted to 64% on AURKC (setting [4]); 95% on NEK3 (setting [4]); 89% on YANK2 (setting [4]); 83% on ZAK (setting [4]); 43% at TXK (setting [4]); 94% on CLK3 (setting [4]).
